Read-outs that look alike come from different tables or passages of the source.
System: MDD patients carrying the indicated biomarkers
Conditions: for HAMD-17 change, Effect / HAMD-28 change, Effect: + SSRI
Procedure: Folate levels are classified as either low (<=2.5 ng/ml) or normal; and homocysteine levels as either normal or elevated (>=[…]). The presence or absence of at least one […] allele for the MTHFR gene are entered as a dichotomous variable (present or absent). […] Using folate as an example predicator, the presence or absence of a low serum-folate level along with treatment assignment can be entered in a 2×2, factorial ANOVA, using depression improvement scores (baseline minus endpoint HAM-D-17 scores) as the dependant variable. […] Similar analyses (i.e. separate 2×2 ANOVA's) can be performed substituting the presence of low folate levels for the presence of other predictors as described herein. Similarly, the effect of other predictors can be indicated by the interaction term representing the potential modulating influence of those variables.
The efficacy effect is determined by measuring the mean change in the HAMD-17 score and HAMD-28 score by the end of Phase I and Phase II, as compared to the baseline.

[1] = A + B: BMI > 30 & LOW SAM/SAH RATIO, N = 13
[2] = A + C: BMI > 30 & HIGH 4-HNE, N = 12
[3] = A + D: BMI > 30 & MTHFR 677 CT/TT, N = 9
[4] = A + E + F: BMI > 30 & MTR 2756 AG/GG & MTRR 66 AG/GG, N = 4
[5] = A + E: BMI > 30 & MTR 2756 AG/GG, N = 5
[6] = B + C: LOW SAM/SAH RATIO & HIGH 4-HNE, N = 11
[7] = B + E + F: LOW SAM/SAH RATIO & MTR 2756 AG/GG & MTRR 66 AG/GG, N = 5
[8] = B + E: LOW SAM/SAH RATIO & MTR 2756 AG/GG, N = 6
[9] = B + F: LOW SAM/SAH RATIO & MTRR 66 AG/GG, N = 11
[10] = C + D: HIGH 4-HNE & MTHFR 677 CT/TT, N = 8
[11] = C + E + F: HIGH 4-HNE & MTR 2756 AG/GG & MTRR 66 AG/GG, N = 4
[12] = C + E: HIGH 4-HNE & MTR 2756 AG/GG, N = 9
[13] = C + F: HIGH 4-HNE & MTRR 66 AG/GG, N = 15
[14] = D + E: MTHFR 677 CT/TT & MTR 2756 AG/GG, N = 4
[15] = E + F: MTR 2756 AG/GG & MTRR 66 AG/GG, N = 8
[16] = MTHFR 677 CC and MTR 2756 AA, Phase I
[17] = MTHFR 677 CC and MTR 2756 AA, Phase II
[18] = MTHFR 677 CC and MTR 2756 AA, Pooled phases
[19] = MTHFR 677 CT or TT and MTR 2756 AG or GG, Phase I
[20] = MTHFR 677 CT or TT and MTR 2756 AG or GG, Phase II
[21] = MTHFR 677 CT or TT and MTR 2756 AG or GG, Pooled phases
[22] = MTR 2756 AA and MTRR 66 AA and BMI < 30 kg/m^2, Phase II
[23] = MTR 2756 AG or GG and MTRR 66 AG or GG and BMI >= 30 kg/m^2, Phase I
[24] = MTR 2756 AG or GG and MTRR 66 AG or GG and BMI >= 30 kg/m^2, Phase II
[25] = MTR 2756 AG or GG and MTRR 66 AG or GG and BMI >= 30 kg/m^2, Pooled phases

SMILES: CN1c2c(nc(N)[nH]c2=O)NC[C@@H]1CNc1ccc(C(=O)N[C@@H](CCC(=O)O)C(=O)O)cc1 [6(S)-5-MTHF, 6(S)-5-methyltetrahydrofolate]
- Pooled Effect Size HAMD-17 [1]: −7.302
- Pooled Effect Size HAMD-28 [1]: −7.572
- Pooled Effect Size HAMD-17 [2]: −5.420
- Pooled Effect Size HAMD-28 [2]: −5.996
- Pooled Effect Size HAMD-17 [3]: −8.090
- Pooled Effect Size HAMD-28 [3]: −9.884
- Pooled Effect Size HAMD-17 [4]: −10.972
- Pooled Effect Size HAMD-28 [4]: −15.347
- Pooled Effect Size HAMD-17 [5]: −11.714
- Pooled Effect Size HAMD-28 [5]: −14.433
- Pooled Effect Size HAMD-17 (A: BMI > 30, N = 21): −4.600
- Pooled Effect Size HAMD-28 (A: BMI > 30, N = 21): −4.660
- Pooled Effect Size HAMD-17 [6]: −9.898
- Pooled Effect Size HAMD-28 [6]: 9.500
- Pooled Effect Size HAMD-17 [7]: −7.640
- Pooled Effect Size HAMD-28 [7]: −11.620
- Pooled Effect Size HAMD-17 [8]: −5.583
- Pooled Effect Size HAMD-28 [8]: −11.683
- Pooled Effect Size HAMD-17 [9]: −5.879
- Pooled Effect Size HAMD-28 [9]: −6.879
- Pooled Effect Size HAMD-17 (B: LOW SAM/SAH RATIO, N = 18): −3.622
- Pooled Effect Size HAMD-28 (B: LOW SAM/SAH RATIO, N = 18): −4.572
- Pooled Effect Size HAMD-17 [10]: −9.446
- Pooled Effect Size HAMD-28 [10]: −9.865
- Pooled Effect Size HAMD-17 [11]: −7.942
- Pooled Effect Size HAMD-28 [11]: −10.241
- Pooled Effect Size HAMD-17 [12]: −8.072
- Pooled Effect Size HAMD-28 [12]: −9.508
- Pooled Effect Size HAMD-17 [13]: −4.850
- Pooled Effect Size HAMD-28 [13]: −6.582
- Pooled Effect Size HAMD-17 (C: HIGH 4-HNE, N = 21): −4.175
- Pooled Effect Size HAMD-28 (C: HIGH 4-HNE, N = 21): 4.554
- Pooled Effect Size HAMD-17 [14]: −18.710
- Pooled Effect Size HAMD-28 [14]: −23.290
- Pooled Effect Size HAMD-17 [15]: −6.976
- Pooled Effect Size HAMD-28 [15]: −9.348
- Pooled Effect Size HAMD-17 (E: MTR 2756 AG/GG, N = 11): −5.677
- Pooled Effect Size HAMD-28 (E: MTR 2756 AG/GG, N = 11): −8.243
- effect in carriers of both variants relative to the sum of the individual biomarker effects (HAMD-28 mean change, MTHFR T + MTR G): at least 2 fold
- HAMD-17 change, Effect [16]: −0.700
- HAMD-28 change, Effect [16]: −0.192
- HAMD-17 change, Effect [17]: −0.571
- HAMD-28 change, Effect [17]: 0.048
- HAMD-17 change, Effect [18]: 0.722
- HAMD-28 change, Effect [18]: 0.711
- HAMD-17 change, Effect [19]: −13.47
- HAMD-28 change, Effect [19]: −18.00
- HAMD-17 change, Effect [20]: −10.33
- HAMD-28 change, Effect [20]: −13.00
- HAMD-17 change, Effect [21]: −18.71
- HAMD-28 change, Effect [21]: −23.29
- HAMD-17 change, Effect [22]: −4.333
- HAMD-28 change, Effect [22]: −4.667
- HAMD-17 change, Effect [23]: −13.667
- HAMD-28 change, Effect [23]: −18.833
- HAMD-17 change, Effect [24]: −11.000
- HAMD-28 change, Effect [24]: −12.000
- HAMD-17 change, Effect [25]: −10.972
- HAMD-28 change, Effect [25]: −15.347
- Pooled Effect Size HAMD-17 (OVERALL, N = 73): −2.264
- Pooled Effect Size HAMD-28 (OVERALL, N = 73): −2.738
- Effect on change in HAMD-17 score (Phase I, 25 =< BMI < 30 kg/m^2): 2.600
- Effect on change in HAMD-28 score (Phase I, 25 =< BMI < 30 kg/m^2): 2.602
- Effect on change in HAMD-17 score (Phase I, BMI < 25): 1.576
- Effect on change in HAMD-28 score (Phase I, BMI < 25): 0.909
- Effect on change in HAMD-17 score (Phase I, BMI < 30 kg/m^2 and HNE-His < median): 3.771
